From PubChem BioAssay (NCI)
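In this assay, cells in 96-well plates receive the compound at five concentrations for 48 hours. Endpoints are linearly interpolated between the surrounding concentrations. TGI marks complete inhibition of growth.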

Assays:
Test in all cases: NCI anticancer screen, dose series, 48 h
SNB-19 CNS = system: SNB-19 CNS
SNB-75 CNS = system: SNB-75 CNS
T-47D breast = system: T-47D breast
MDA-N = system: MDA-N
OVCAR-5 ovarian = system: OVCAR-5 ovarian
NCI-H522 lung = system: NCI-H522 lung
KM12 colon = system: KM12 colon
SK-MEL-28 melanoma = system: SK-MEL-28 melanoma
HOP-92 NSCLC = system: HOP-92 NSCLC
U251 CNS = system: U251 CNS
MOLT-4 leukemia = system: MOLT-4 leukemia
OVCAR-8 ovarian = system: OVCAR-8 ovarian
UACC-257 melanoma = system: UACC-257 melanoma
HCT-116 colon = system: HCT-116 colon
MCF7 breast = system: MCF7 breast
BT-549 breast = system: BT-549 breast
HCC-2998 colon = system: HCC-2998 colon
UO-31 renal = system: UO-31 renal
SF-539 CNS = system: SF-539 CNS
HCT-15 colon = system: HCT-15 colon
NCI-H226 lung = system: NCI-H226 lung
PC-3 prostate = system: PC-3 prostate
RPMI-8226 leukemia = system: RPMI-8226 leukemia
CCRF-CEM leukemia = system: CCRF-CEM leukemia
K-562 leukemia = system: K-562 leukemia
OVCAR-4 ovarian = system: OVCAR-4 ovarian
EKVX NSCLC = system: EKVX NSCLC
HL-60(TB) leukemia = system: HL-60(TB) leukemia
NCI-H23 lung = system: NCI-H23 lung
COLO 205 colon = system: COLO 205 colon
HS 578T breast = system: HS 578T breast
ACHN renal = system: ACHN renal
DU-145 prostate = system: DU-145 prostate
HOP-62 NSCLC = system: HOP-62 NSCLC
IGROV1 ovarian = system: IGROV1 ovarian
CAKI-1 renal = system: CAKI-1 renal
MDA-MB-231 breast = system: MDA-MB-231 breast
M14 melanoma = system: M14 melanoma
SN12C renal = system: SN12C renal
SR leukemia = system: SR leukemia
SK-MEL-2 melanoma = system: SK-MEL-2 melanoma
SF-268 CNS = system: SF-268 CNS
SF-295 CNS = system: SF-295 CNS
NCI-H460 lung = system: NCI-H460 lung
MALME-3M melanoma = system: MALME-3M melanoma
LOX IMVI melanoma = system: LOX IMVI melanoma
TK-10 renal = system: TK-10 renal
RXF 393 renal = system: RXF 393 renal
A498 renal = system: A498 renal
SK-OV-3 ovarian = system: SK-OV-3 ovarian
A549 NSCLC = system: A549 NSCLC
SK-MEL-5 melanoma = system: SK-MEL-5 melanoma
786-0 renal = system: 786-0 renal
UACC-62 melanoma = system: UACC-62 melanoma
NCI/ADR-RES ovarian = system: NCI/ADR-RES ovarian
HT29 colon = system: HT29 colon
SW-620 colon = system: SW-620 colon
MDA-MB-435 = system: MDA-MB-435

Molecule `CC1=COC2=C(C)C(=O)C(=O)c3c(C)ccc1c32` has a TGI (SNB-19 CNS) of over 40.5 µM, a TGI (SNB-75 CNS) of 42.6 µM and a TGI (T-47D breast) of 27.7 µM. For the same molecule, the TGI (MDA-N) was 3.26 µM, the TGI (OVCAR-5 ovarian) was 34.8 µM and the TGI (NCI-H522 lung) was 8.27 µM. The TGI (KM12 colon) was 26.4 µM, the TGI (SK-MEL-28 melanoma) was over 100 µM and the TGI (HOP-92 NSCLC) was 39.9 µM. It also gave a TGI (U251 CNS) of over 44.7 µM, a TGI (MOLT-4 leukemia) of 12 µM and a TGI (OVCAR-8 ovarian) of 12.4 µM. For the same molecule, the TGI (UACC-257 melanoma) was 20.6 µM, the TGI (HCT-116 colon) was 20.6 µM and the TGI (MCF7 breast) was 8.92 µM. For the same molecule, the TGI (BT-549 breast) was 38.3 µM, the TGI (HCC-2998 colon) was 19.6 µM and the TGI (UO-31 renal) was 40.6 µM. It also gave a TGI (SF-539 CNS) of 10.7 µM, a TGI (HCT-15 colon) of 11.5 µM and a TGI (NCI-H226 lung) of 68.9 µM. For the same molecule, the TGI (PC-3 prostate) was 22.5 µM, the TGI (RPMI-8226 leukemia) was 97.2 µM and the TGI (CCRF-CEM leukemia) was over 76.1 µM. The TGI (K-562 leukemia) was over 100 µM, the TGI (OVCAR-4 ovarian) was 13.5 µM and the TGI (EKVX NSCLC) was 24.7 µM. The TGI (HL-60(TB) leukemia) was 5.38 µM, the TGI (NCI-H23 lung) was 14.3 µM and the TGI (COLO 205 colon) was 8.91 µM. For the same molecule, the TGI (HS 578T breast) was over 95.7 µM, the TGI (ACHN renal) was 29.5 µM and the TGI (DU-145 prostate) was 20.3 µM. For the same molecule, the TGI (HOP-62 NSCLC) was over 36.9 µM, the TGI (IGROV1 ovarian) was 21.6 µM and the TGI (CAKI-1 renal) was over 63.4 µM. It also gave a TGI (MDA-MB-231 breast) of 23.6 µM, a TGI (M14 melanoma) of 13.8 µM and a TGI (SN12C renal) of 14.1 µM. For the same molecule, the TGI (SR leukemia) was over 42.6 µM, the TGI (SK-MEL-2 melanoma) was over 40.1 µM and the TGI (SF-268 CNS) was 36.6 µM. For the same molecule, the TGI (SF-295 CNS) was 18.8 µM, the TGI (NCI-H460 lung) was 15.4 µM and the TGI (MALME-3M melanoma) was 16 µM. The TGI (LOX IMVI melanoma) was 16 µM, the TGI (TK-10 renal) was over 92.6 µM and the TGI (RXF 393 renal) was 21.5 µM. The TGI (A498 renal) was 41.8 µM, the TGI (SK-OV-3 ovarian) was over 93.2 µM and the TGI (A549 NSCLC) was 15.2 µM. The TGI (SK-MEL-5 melanoma) was 3.26 µM, the TGI (786-0 renal) was 19.6 µM and the TGI (UACC-62 melanoma) was 11.9 µM. It also gave a TGI (NCI/ADR-RES ovarian) of 7.87 µM, a TGI (HT29 colon) of 12.8 µM and a TGI (SW-620 colon) of 28.9 µM. The TGI (MDA-MB-435) was 3.86 µM.

`CC(=O)Oc1ccc(-c2cc3ccccc3oc2=O)cc1OC(C)=O` gave a TGI (SNB-19 CNS) of over 100 µM, a TGI (SNB-75 CNS) of over 100 µM and a TGI (T-47D breast) of over 100 µM. The TGI (MDA-N) was over 100 µM, the TGI (OVCAR-5 ovarian) was over 100 µM and the TGI (NCI-H522 lung) was over 100 µM. It also gave a TGI (KM12 colon) of 33.2 µM, a TGI (SK-MEL-28 melanoma) of over 100 µM and a TGI (U251 CNS) of over 100 µM. The TGI (MOLT-4 leukemia) was over 100 µM, the TGI (OVCAR-8 ovarian) was over 100 µM and the TGI (UACC-257 melanoma) was over 100 µM. For the same molecule, the TGI (HCT-116 colon) was over 100 µM, the TGI (MCF7 breast) was over 100 µM and the TGI (BT-549 breast) was over 100 µM. The TGI (HCC-2998 colon) was 59.3 µM, the TGI (UO-31 renal) was over 100 µM and the TGI (SF-539 CNS) was over 100 µM. It also gave a TGI (HCT-15 colon) of over 100 µM, a TGI (NCI-H226 lung) of over 100 µM and a TGI (PC-3 prostate) of over 100 µM. For the same molecule, the TGI (RPMI-8226 leukemia) was over 100 µM, the TGI (CCRF-CEM leukemia) was over 100 µM and the TGI (K-562 leukemia) was over 100 µM. It also gave a TGI (OVCAR-4 ovarian) of over 100 µM, a TGI (EKVX NSCLC) of over 100 µM and a TGI (HL-60(TB) leukemia) of 7.48 µM. The TGI (NCI-H23 lung) was over 100 µM, the TGI (COLO 205 colon) was over 100 µM and the TGI (HS 578T breast) was over 100 µM. The TGI (ACHN renal) was over 100 µM, the TGI (DU-145 prostate) was over 100 µM and the TGI (HOP-62 NSCLC) was over 100 µM. The TGI (MDA-MB-231 breast) was over 100 µM, the TGI (M14 melanoma) was over 100 µM and the TGI (SN12C renal) was over 100 µM. For the same molecule, the TGI (SR leukemia) was over 100 µM, the TGI (SK-MEL-2 melanoma) was over 100 µM and the TGI (SF-268 CNS) was over 100 µM. The TGI (SF-295 CNS) was 67.9 µM, the TGI (NCI-H460 lung) was over 100 µM and the TGI (MALME-3M melanoma) was over 100 µM. For the same molecule, the TGI (LOX IMVI melanoma) was over 100 µM, the TGI (TK-10 renal) was over 100 µM and the TGI (A498 renal) was over 100 µM. It also gave a TGI (A549 NSCLC) of 94.7 µM, a TGI (786-0 renal) of over 100 µM and a TGI (NCI/ADR-RES ovarian) of over 100 µM. It also gave a TGI (HT29 colon) of over 100 µM, a TGI (SW-620 colon) of over 100 µM and a TGI (MDA-MB-435) of over 100 µM.
